From BindingDB's records for doi:10.3109/14756360902888184 (Dublin City University, 2010) come the findings set out here.

Residues, ends and D or L forms follow the SMILES beside them. *: point of attachment. Bz = O=C(c1ccccc1)*

This assay has as its target T1, Secreted cathepsin L 1 (Fasciola hepatica, UniProt Q7JNQ9).
T1 sequence (Q7JNQ9 whole entry): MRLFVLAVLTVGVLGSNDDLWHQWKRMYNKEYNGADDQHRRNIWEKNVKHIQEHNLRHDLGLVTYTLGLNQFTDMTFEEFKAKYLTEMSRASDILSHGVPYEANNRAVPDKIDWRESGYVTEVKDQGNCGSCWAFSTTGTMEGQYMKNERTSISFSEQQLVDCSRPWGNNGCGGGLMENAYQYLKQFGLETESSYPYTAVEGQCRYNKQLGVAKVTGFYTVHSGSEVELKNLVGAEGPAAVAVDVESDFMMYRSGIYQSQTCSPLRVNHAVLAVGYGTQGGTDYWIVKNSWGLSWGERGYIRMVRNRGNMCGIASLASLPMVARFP
As to the kind of experiment: Cathepsin L Enzyme Assay. Here is the method: The protease was activated by the addition of dithiothreitol, ethylenediaminetetraacetic acid (EDTA), and sodium acetate followed by incubation at 37°C for 2 h. Proteinase activity was measured fluorometrically using Z-Phe-Arg-NHMec as substrate. The substrate was stored as a 1 mM stock solution in dimethyl sulfoxide (DMSO). Assays were carried out using a final concentration of 10 μM substrate in 0.1 M sodium acetate containing 0.1 M dithiothreitol and […]. The enzyme and inhibitor were incubated together for 15 min at 37°C, at which stage the substrate was added. The mixture was incubated at 37°C for 30 min. The reaction was stopped by the addition of 150 μL of a 10% acetic acid solution. The amount of 7-amino-4-methylcoumarin (-NHMec) released was measured using a PerkinElmer fluorescence spectrophotometer with excitation set at 370 nm and emission at 440 nm.
As usually defined, the IC50 is the concentration that inhibits the measured activity by half. Higher therefore signals lower potency. `CC(C)C[C@H](NC(=O)c1c(F)c(F)c(F)c(F)c1F)C(=O)NCC#N` [N-2,3,4,5,6-pentafluorobenzoyl-L-leucine-glycine nitrile (33)] showed a half-maximal inhibitory concentration (IC50) of 4.4 µM. The result for `CC(C)C[C@H](NC(=O)c1cc(F)c(F)c(F)c1F)C(=O)NCC#N` [N-2,3,4,5-tetrafluorobenzoyl-L-leucine-glycine nitrile (32)] reads 3.4 µM. In turn, `CC(C)C[C@H](NC(=O)c1ccc(F)c(F)c1F)C(=O)NCC#N` [N-2,3,4-trifluorobenzoyl-L-leucine-glycine nitrile (29)] registered an IC50 of 4.1 µM. `CC(C)C[C@H](NC(=O)c1c(F)ccc(F)c1F)C(=O)NCC#N` [N-2,3,6-trifluorobenzoyl-L-leucine-glycine nitrile (28)] came in with an IC50 of 6 µM. For `CC(C)C[C@H](NC(=O)c1cc(F)c(F)cc1F)C(=O)NCC#N` [N-2,4,5-trifluorobenzoyl-L-leucine-glycine nitrile] the value was 4.5 µM; for `CC(C)C[C@H](NC(=O)c1ccc(F)cc1F)C(=O)NCC#N` [N-2,4-difluorobenzoyl-L-leucine-glycine nitrile (23)], 5.5 µM; for `CC(C)C[C@H](NC(=O)c1cc(F)ccc1F)C(=O)NCC#N` [N-2,5-difluorobenzoyl-L-leucine-glycine nitrile (24)], 3.1 µM. In turn, `CC(C)C[C@H](NC(=O)c1c(F)cccc1F)C(=O)NCC#N` [N-2,6-difluorobenzoyl-L-leucine-glycine nitrile (25)] showed an IC50 of 3.7 µM.

`C[C@H](NC(=O)c1ccccc1F)C(=O)NCC#N` [N-2-fluorobenzoyl-L-alanine-glycine nitrile (15)] showed a half-maximal inhibitory concentration (IC50) of 87.6 µM. The result for `C[C@H](NC(=O)c1ccccc1F)C(=O)NCCC#N` [N-2-fluorobenzoyl-L-alanine-β-alanine nitrile (19)] reads more than 100 µM; that for `CC(C)C[C@H](NC(=O)c1ccccc1C(F)(F)F)C(=O)NCC#N` [N-2-trifluoromethylbenzoyl-L-leucine-glycine nitrile (34)], 4.1 µM. The result for `CC(C)C[C@H](NC(=O)c1cc(F)c(F)c(F)c1)C(=O)NCC#N` [N-3,4,5-trifluorobenzoyl-L-leucine-glycine nitrile] reads 3.4 µM. For the compound `CC(C)C[C@H](NC(=O)c1ccc(F)c(F)c1)C(=O)NCC#N` [N-3,4-difluorobenzoyl-L-leucine-glycine nitrile (26)], half-maximal inhibition (IC50) required 3.1 µM. The IC50 values of the last two compounds are within 1.5-fold of each other. The result for `CC(C)C[C@H](NC(=O)c1cc(F)cc(F)c1)C(=O)NCC#N` [N-3,5-difluorobenzoyl-L-leucine-glycine nitrile (27)] reads 3 µM; that for `CC(C)C[C@H](NC(=O)c1cccc(C(F)(F)F)c1)C(=O)NCC#N` [N-3-trifluoromethylbenzoyl-L-leucine-glycine nitrile (35)], 9.1 µM. For `CC(C)C[C@H](NC(=O)c1ccc(C(F)(F)F)cc1)C(=O)NCC#N` [N-4-trifluoromethylbenzoyl-L-leucine-glycine nitrile (36)] the value was 3.2 µM; for `CC(C)C[C@H](NC(=O)c1ccccc1)C(=O)NCC(=O)O` [N-benzoyl-L-leucine-glycine (37)] (Bz-Leu-Gly-OH), 10 µM; for `C[C@H](NC(=O)c1c(F)c(F)c(F)c(F)c1F)C(=O)NCC#N` [N-pentafluorobenzoyl-L-alanine-glycine nitrile (16)], 68.3 µM. For `C[C@H](NC(=O)c1c(F)c(F)c(F)c(F)c1F)C(=O)NCCC#N` [N-pentafluorobenzoyl-L-alanine-β-alanine nitrile (20)] the value was more than 100 µM.
